Target: T1, fibrinogen binding to platelets (glycoprotein IIb/IIIa) (Homo sapiens, UniProt P05106+P08514)
T1 construct: Washed human platelets were prepared from platelet-rich plasma by gel filtration; from tissue
Assay: Test 1: Fibrinogen Binding to Platelets (FITC-fibrinogen, flow cytometry)
Settings: washed human platelets activated with 20 μM ADP, fixed; 10 μg/ml FITC-fibrinogen; 30 minutes at room temperature; read-out: IC50 (dose required to inhibit the binding by 50%)
Method: Test 1: Fibrinogen Binding to Platelets
Washed human platelets were prepared from platelet-rich plasma by gel filtration. The washed platelets were activated with 20 μM ADP for 10 minutes and then fixed for 30 minutes with 0.8% paraformaldehyde. The platelets were then washed by centrifugation and suspended in HEPES-Tyrodes buffer containing […].
350 μl of platelets were incubated at a final concentration of 2×10^8/ml with 10 μg/ml FITC-fibrinogen and test compound. The reaction was left for 30 minutes at room temperature. The FITC fluoresence of bound fibrinogen was measured by using a FACS can flow cytometer.
Specific binding was calculated by subtracting the binding in the presence of 50-fold excess unlabeled fibrinogen. Result was expressed at IC50 value, i.e. dose required to inhibit the binding by 50%.

T1 sequence (P08514 32-887 limits assumed): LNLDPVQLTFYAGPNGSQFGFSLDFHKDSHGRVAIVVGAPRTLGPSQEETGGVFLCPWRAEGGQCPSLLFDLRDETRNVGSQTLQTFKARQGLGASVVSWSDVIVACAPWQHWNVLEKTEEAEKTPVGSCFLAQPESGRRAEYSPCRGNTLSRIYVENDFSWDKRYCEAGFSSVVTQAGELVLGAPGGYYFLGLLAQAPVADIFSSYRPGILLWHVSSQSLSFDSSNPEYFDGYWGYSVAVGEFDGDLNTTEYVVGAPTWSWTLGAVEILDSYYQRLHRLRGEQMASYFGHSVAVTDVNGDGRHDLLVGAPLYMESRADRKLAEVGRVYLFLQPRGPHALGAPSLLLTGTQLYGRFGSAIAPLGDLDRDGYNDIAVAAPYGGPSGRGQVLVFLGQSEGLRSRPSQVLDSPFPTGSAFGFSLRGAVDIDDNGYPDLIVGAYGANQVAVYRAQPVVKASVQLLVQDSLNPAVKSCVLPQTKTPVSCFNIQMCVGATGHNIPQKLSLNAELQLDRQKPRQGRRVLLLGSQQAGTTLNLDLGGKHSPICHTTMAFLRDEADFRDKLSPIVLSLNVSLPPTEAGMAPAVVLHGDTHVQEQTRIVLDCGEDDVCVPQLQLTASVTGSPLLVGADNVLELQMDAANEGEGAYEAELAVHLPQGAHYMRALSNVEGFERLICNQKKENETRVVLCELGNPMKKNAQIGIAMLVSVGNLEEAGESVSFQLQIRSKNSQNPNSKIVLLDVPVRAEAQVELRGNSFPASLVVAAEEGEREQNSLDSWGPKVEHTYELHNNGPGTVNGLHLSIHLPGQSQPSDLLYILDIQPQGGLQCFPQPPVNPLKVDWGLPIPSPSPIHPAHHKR
T1 sequence (P08514 891-1039 limits assumed): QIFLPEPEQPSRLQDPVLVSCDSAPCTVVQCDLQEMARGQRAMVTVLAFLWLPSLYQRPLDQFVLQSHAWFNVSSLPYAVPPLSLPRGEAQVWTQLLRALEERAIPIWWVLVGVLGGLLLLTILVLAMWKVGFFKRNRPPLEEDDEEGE
T1 sequence (P05106 27-788): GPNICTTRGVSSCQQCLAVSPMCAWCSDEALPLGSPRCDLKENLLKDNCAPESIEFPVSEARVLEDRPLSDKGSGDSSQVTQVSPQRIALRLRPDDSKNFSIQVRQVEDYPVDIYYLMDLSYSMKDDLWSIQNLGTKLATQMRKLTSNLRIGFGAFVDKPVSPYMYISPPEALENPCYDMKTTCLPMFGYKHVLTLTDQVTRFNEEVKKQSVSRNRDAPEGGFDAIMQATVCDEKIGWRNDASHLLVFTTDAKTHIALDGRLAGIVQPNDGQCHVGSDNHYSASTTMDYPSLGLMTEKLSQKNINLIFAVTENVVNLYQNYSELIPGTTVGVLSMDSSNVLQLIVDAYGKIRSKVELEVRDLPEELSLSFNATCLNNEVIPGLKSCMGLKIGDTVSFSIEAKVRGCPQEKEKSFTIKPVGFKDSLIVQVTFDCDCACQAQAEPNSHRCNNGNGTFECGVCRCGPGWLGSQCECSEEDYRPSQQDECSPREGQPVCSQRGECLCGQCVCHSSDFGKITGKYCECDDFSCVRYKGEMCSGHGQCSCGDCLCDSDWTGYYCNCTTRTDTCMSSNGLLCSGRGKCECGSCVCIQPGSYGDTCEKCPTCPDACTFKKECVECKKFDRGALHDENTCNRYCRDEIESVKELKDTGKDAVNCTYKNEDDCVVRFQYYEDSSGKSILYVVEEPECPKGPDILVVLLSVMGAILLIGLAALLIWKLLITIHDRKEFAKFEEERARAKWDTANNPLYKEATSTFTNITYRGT

SMILES: CC(=O)NC(CNC(=O)[C@@H]1CCCN(C(=O)CCC2CCNCC2)C1)C(=O)O (stereo partly shown) [Example 1]
- IC50: 16 nM

— patent US20010016571A1, “N-[ (R) -1-{3- (4- piperidyl) propionyl } -3-piperidylcarbonyl] -2 (S) -acetylamino-beta -alanine as fibrinogen receptor antagonist” (FUJISAWA PHARMACEUTICAL CO., LTD., priority 1996, published 2001)
